In patent US12655139B2, “Isoxazolidines as RIPK1 inhibitors and use thereof” (SANOFI, priority 2020, dated 2026) one finds IC50 data, which are given here for 31 molecules.

For assay [1], the system named is U937 cells. The assay can be described thus: Cellular assay in U937 cells on cell death (necroptosis), TNFα/zVAD.fmk. It is filed as cell-based. The note with it: read-out: U937 IC50. An excerpt:
Cellular Assay in U937 Cells to Measure the Activity of RIPK1-Inhibitors on Cell Death (Necroptosis).
Cell death was quantified in 96 well plates by determination of the amount of live cell using a CellTiter 96 AQueous reagent (Promega), a calorimetric method to measure the amount of live cells by reducing tetrazolium compound [3-(4,5-dimethylthiazol-2-yl)-5-(3-carboxymethoxyphenyl)-2-(4-sulfophenyl)-2H-tetrazolium, inner salt; MTS] into formazan. Absorbance of formazan was read at 490 nm. The inhibitory activity of the test compound was quantified in a concentration response curve (CRC) experiment. Compounds were obtained as 10 mM stock solutions and were diluted 1 to 10 volumes with DMSO to yield a 1 mM solution. From this solution 2 μl were diluted with 998 μl growth medium. 100 μl of 2 μM compound solution was further diluted sequentially with a dilution factor of 2.5 by adding 150 μl growth medium. A total of 10 concentrations were tested ranging from 10 μM to 0.26 nM or from 1 μM to 0.07 nM.
U937 cells were cultured in RPMI1640 Glutamax and 10% heat inactivated FBS. 50 μl cell suspension containing 1×10^6 cells/ml supplemented with 50 μM zVAD.fmk (Benzyloxycarbonyl-Val-Ala-Asp (OMe) fluoromethylketone) and 100 ng/ml recombinant human TNFα were dispensed in each well of a 96-well plate. 50 μl of compound dilutions (see above) were added and the cell suspension incubated overnight (18 to 24 hours) at 37° C., 5% CO2 in a humidified atmosphere (95% rH). High (no compound) and low control (no TNFα, zVAD.fmk) were tested with 7 replicates; all compound concentrations were tested in duplicates on each experimental plate.
CellTiter 96 Aqueous reagent was mixed (100 μl PMS (phenazine methosulfate) solution/2 ml MTS (3-(4,5-[…])-5-(3-carboxymethoxyphenyl)-2-(4-sulfophenyl)-2H-tetrazolium, inner salt) solution) and 20 μl were added per well. After 4 hours incubation at 37° C. (5% CO2 95% rH) optical density was measured at 490 nm on a microplate reader (Tecan Infinite M1000).
The % inhibition is expressed as percentage of the maximal inhibition value obtained in the absence of TNFα/zVAD.fmc.

The target in assay [2] is T1, hRIPK1 (aa 1-375) fusion protein (Homo sapiens, UniProt Q13546).
T1 construct: hRIPK1 (aa 1-375) fusion protein
T1 sequence (Q13546 1-375): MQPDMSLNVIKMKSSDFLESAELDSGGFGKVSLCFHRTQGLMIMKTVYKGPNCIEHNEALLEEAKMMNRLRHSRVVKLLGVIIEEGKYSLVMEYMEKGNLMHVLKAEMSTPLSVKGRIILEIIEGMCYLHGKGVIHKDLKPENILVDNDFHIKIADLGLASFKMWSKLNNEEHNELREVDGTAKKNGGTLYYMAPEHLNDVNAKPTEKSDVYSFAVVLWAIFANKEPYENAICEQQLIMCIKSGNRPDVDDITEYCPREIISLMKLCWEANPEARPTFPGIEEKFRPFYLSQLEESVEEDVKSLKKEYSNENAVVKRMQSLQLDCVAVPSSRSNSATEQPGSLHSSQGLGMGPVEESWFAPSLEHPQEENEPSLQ
Description: ADP-Glo kinase assay, RIPK1 autophosphorylation. It is filed as biochemical. To be noted: Table 1. As to the method: Evaluation of Receptor-Interacting Protein Kinase 1 Inhibition.
The catalytic activity of RIPK1 was measured by monitoring the conversion of Adenosine triphosphate (ATP) to Adenosine diphosphate (ADP) due to autophosphorylation using an ADP-Glo kinase kit (Promega, catalog no. V9104).
After another 240 minutes incubation at room temperature, 5 μl Promega ADP-Glo reagent I were added to quench the reaction and deplete unconsumed ATP. After an incubation period of 30 minutes, 10 μl Promega ADP-Glo detection reagent II were added resulting in conversion of ADP to ATP, which generates a light-reaction between luciferase and luciferin. Luminescence was quantified after 30 minutes with a Pherastar FS (BMG LABTECH, Ortenberg).
The adjustment was obtained by nonlinear regression using the Levenberg Marquardt algorithm.

Counter-ions that a name gives are not always drawn. Like-named read-outs stand apart in the source and are kept apart here.

As for “2-[(3R,4R)-4-[(3S)-3-(5-cyano-3-pyridyl)isoxazolidine-2-carbonyl]-3-fluoro-1-piperidyl]pyrimidine-4-carboxamide and 2-[(3S,4S)-4-[(3S)-3-(5-cyano-3-pyridyl)isoxazolidine-2-carbonyl]-3-fluoro-1-piperidyl]pyrimidine-4-carboxamide [Ex. 092]”, the IC50 (as a rule, the concentration that inhibits the measured activity by half) is 50.2 nM in assay [1] (Table 2) and 12.2 nM in assay [2].
As for `N#Cc1cncc([C@@H]2CCON2C(=O)C2(F)CCN(c3nccc(C#N)n3)CC2(F)F)c1` (mixture of isomers) [Ex. 123], the half-inhibitory concentration (IC50) in assay [1] (Homo sapiens, U-937, Table 2) turned out to be 44.2 nM; in assay [2], 26.3 nM.
Regarding `NC(=O)c1cc(N2CCC(C(=O)N3OCCC3C3CCCOC3)CC2)ncn1` (racemic) [Ex. 023*, 6-[4-[3-Tetrahydropyran-3-ylisoxazolidine-2-carbonyl]-1-piperidyl]pyrimidine-4-carboxamide TFA salt], the IC50 in assay [1] (Homo sapiens, U-937, Table 2) came out at 4670 nM; in assay [2], 797 nM.
For `NC(=O)c1ccnc(N2CCC(C(=O)N3OCCC3c3cncc(CO)c3)CC2)n1` (racemic) [Ex. 025*, 2-[4-[3-[5-(Hydroxymethyl)-3-pyridyl]isoxazolidine-2-carbonyl]-1-piperidyl]pyrimidine-4-carboxamide], the IC50 in assay [1] (Homo sapiens, U-937, Table 2) stood at 498 nM; in assay [2], 51.6 nM.
`NC(=O)c1cncc(C2CCON2C(=O)C2CCN(c3cc(C(N)=O)ncn3)CC2)c1` (racemic) [Ex. 030*]: the IC50 in assay [1] (Homo sapiens, U-937, Table 2) turned out to be 4170 nM; in assay [2] it was 247 nM.
Regarding `N#Cc1ccnc(N2CCC(C(=O)N3OCCC3c3cncc(CO)c3)CC2)n1` (racemic) [Ex. 031*], the IC50 in assay [1] (Homo sapiens, U-937, Table 2) was found to be 395 nM; in assay [2], 51.5 nM.
For the molecule `NC(=O)c1cc(N2CCC(C(=O)N3OCCC3c3cncc(CO)c3)CC2)ncn1` (racemic) [Ex. 032*, 6-[4-[3-[5-(Hydroxymethyl)-3-pyridyl]isoxazolidine-2-carbonyl]-1-piperidyl]pyrimidine-4-carboxamide TFA salt], the concentration for half-maximal inhibition (IC50) was determined as 2440 nM in assay [1] (Homo sapiens, U-937, Table 2) and 180 nM in assay [2].
The matching figures for `NC(=O)c1ccnc(N2CCC(C(=O)N3OCCC3c3ccc(N)nc3)CC2)n1` (racemic) [Ex. 036*]: 198 nM and 48.9 nM.
Consider `N#Cc1ccnc(N2CCC(C(=O)N3OCCC3c3ccc(N)nc3)CC2)n1` (racemic) [Ex. 037*], for which the IC50 in assay [1] (Homo sapiens, U-937, Table 2) was 177 nM; in assay [2], 31.5 nM.
The matching figures for `NC(=O)c1cc(N2CCC(C(=O)N3OCC[C@H]3c3ccc(N)nc3)CC2)ncn1` (racemic) [Ex. 038*]: 1710 nM and 89.9 nM.
For `Cn1cc(C2CCON2C(=O)C2CCN(c3nccc(C(N)=O)n3)CC2)cn1` (racemic) [Ex. 046*], the half-inhibitory concentration (IC50) was 605 nM in assay [1] (Homo sapiens, U-937, Table 2) and 65.1 nM in assay [2].
On to `Cn1cc(C2CCON2C(=O)C2CCN(c3nccc(C#N)n3)CC2)cn1` (racemic) [Ex. 047*], for which the IC50 in assay [1] (Homo sapiens, U-937, Table 2) came out at 549 nM; in assay [2], 64.9 nM.
The matching figures for `NC(=O)c1cc(N2CCC(C(=O)N3OCCC3c3cncc(F)c3)CC2)ncn1` (racemic) [Ex. 048*]: 133 nM and 33.2 nM.
The matching figures for `N#Cc1cc(N2CCC(C(=O)N3OCCC3c3cncc(F)c3)CC2)ncn1` (racemic) [Ex. 049*]: 41.1 nM and 9.99 nM.
The matching figures for `NC(=O)c1ccnc(N2CCC(C(=O)N3OCCC3c3cncc(F)c3)CC2)n1` (racemic) [Ex. 050*]: 32.9 nM and 26.7 nM.
With `COC(=O)c1ccnc(N2CCC(C(=O)N3OCCC3c3cncc(F)c3)CC2)n1` (racemic) [Ex. 051*, Methyl 2-[4-[3-(5-fluoro-3-pyridyl)isoxazolidine-2-carbonyl]-1-piperidyl]pyrimidine-4-carboxylate], the IC50 turned out to be 678 nM in assay [1] (Homo sapiens, U-937, Table 2) and 134 nM in assay [2].
With `O=C(O)c1ccnc(N2CCC(C(=O)N3OCCC3c3cncc(F)c3)CC2)n1` (racemic) [Ex. 054*], the IC50 in assay [1] (Homo sapiens, U-937, Table 2) is greater than 10000 nM; in assay [2], 767 nM.
Take `Cn1ccc(C2CCON2C(=O)C2CCN(c3nccc(C#N)n3)CC2)n1` (racemic) [Example 007, 2-[4-[3-(1-methylpyrazol-3-yl)isoxazolidine-2-carbonyl]-1-piperidyl] pyrimidine-4-carbonitrile]: the IC50 in assay [1] (Homo sapiens, U-937, Table 2) worked out at 2420 nM; in assay [2] it was 64.9 nM.
The matching figures for `N#Cc1ccnc(N2CCC(C(=O)N3OCCC3c3ccc4nccn4c3)CC2)n1` (racemic) [Example 014, 2-[4-[3-imidazo[1,2-a]pyridin-6-ylisoxazolidine-2-carbonyl]-1-piperidyl] pyrimidine-4-carbonitrile TFA salt]: greater than 10000 nM and 729 nM.
As for `NC(=O)c1cc(N2CCC(C(=O)N3OCCC3c3ccc4nccn4c3)CC2)ncn1` (racemic) [Example 015, 6-[4-[3-imidazo[1,2-a]pyridin-6-ylisoxazolidine-2-carbonyl]-1-piperidyl] pyrimidine-4-carboxamide TFA salt], the IC50 in assay [2] was 13100 nM.
Take `NC(=O)c1ccnc(N2CCC(C(=O)N3OCCC3C3CCCOC3)CC2)n1` (racemic) [Example 024, 2-[4-[3-Tetrahydropyran-3-ylisoxazolidine-2-carbonyl]-1-piperidyl]pyrimidine-4-carboxamide]: the IC50 in assay [1] (Homo sapiens, U-937, Table 2) was found to be 834 nM; in assay [2], 156 nM.
`CNC(=O)c1cncc(C2CCON2C(=O)C2CCN(c3nccc(C#N)n3)CC2)c1` (racemic) [Example 042, 5-[2-[1-(4-cyanopyrimidin-2-yl)piperidine-4-carbonyl]isoxazolidin-3-yl]-N-methyl-pyridine-3-carboxamide]: the IC50 in assay [1] (Homo sapiens, U-937, Table 2) was found to be 6010 nM; in assay [2] it was 193 nM.
The matching figures for `NC(=O)c1ccnc(N2CCC(C(=O)N3OCCC3c3cncc(F)c3)CC2)n1` (single isomer, unassigned) [Ex. 069]: greater than 10000 nM and greater than 33000 nM.
The matching figures for `N#Cc1cncc([C@@H]2CCON2C(=O)[C@@H]2CCN(c3nccc(C(N)=O)n3)C[C@@H]2F)c1` (single isomer, unassigned) [Ex. 095]: 120 nM and 30.5 nM.
The matching figures for `Cc1ccc([C@@H]2CCON2C(=O)C2CCN(c3cc(C(N)=O)ncn3)CC2)s1` (single isomer, unassigned) [Ex. 176]: 3.71 nM and 22 nM.
Take `Cc1ccc(C2CCON2C(=O)C2CCN(c3ncc(C)c(C(N)=O)n3)CC2F)cn1` (single isomer, unassigned) [Ex. 185]: the half-maximal inhibitory concentration (IC50) came to 1150 nM in assay [1] (Table 2) and 297 nM in assay [2].
Turning to `N#Cc1cncc([C@@H]2CCON2C(=O)[C@H]2CCN(c3nccc(C(N)=O)n3)C[C@H]2F)c1` (single isomer, unassigned) [compound 96], the IC50 in assay [1] (Homo sapiens, U-937, Table 2) worked out at 204 nM; in assay [2] it was 26 nM.
The matching figures for `N#Cc1cncc([C@@H]2CCON2C(=O)C2CCN(c3nccc(C(=O)O)n3)CC2)c1` (single isomer, unassigned) [compound 102]: greater than 10000 nM and 443 nM.
Regarding `Cc1ccc(C2CCON2C(=O)C2CCN(c3ncc(C)c(C(N)=O)n3)CC2F)cn1` (single isomer, unassigned) [compound 186], the IC50 in assay [1] (Table 2) amounted to 148 nM; in assay [2], 38.4 nM.
For the molecule `N#Cc1cncc([C@H]2CCON2C(=O)C2CCN(c3nccc(C(N)=O)n3)CC2)c1` [Ex. 016], the IC50 in assay [2] turned out to be 18800 nM.
Same read-out and setting: to `COC(=O)c1ccnc(N2CCC(C(=O)N3OCC[C@H]3c3cncc(C#N)c3)CC2)n1` [compound 100] belongs 24.5 nM.
